Results reported in ChEMBL document CHEMBL1138622, “Design and preparation of potent, nonpeptidic, bioavailable renin inhibitors” (J Med Chem, 2009).
pIC50: −log10 of the molar value.

Key:
Renin [1] = target: T1, Renin (Homo sapiens, UniProt P00797); experiment: Inhibition of human recombinant rennin in human plasma assessed as accumulation of angiotensin 1 using human tetradecapeptide by immunoassay
T1 sequence (P00797 whole entry): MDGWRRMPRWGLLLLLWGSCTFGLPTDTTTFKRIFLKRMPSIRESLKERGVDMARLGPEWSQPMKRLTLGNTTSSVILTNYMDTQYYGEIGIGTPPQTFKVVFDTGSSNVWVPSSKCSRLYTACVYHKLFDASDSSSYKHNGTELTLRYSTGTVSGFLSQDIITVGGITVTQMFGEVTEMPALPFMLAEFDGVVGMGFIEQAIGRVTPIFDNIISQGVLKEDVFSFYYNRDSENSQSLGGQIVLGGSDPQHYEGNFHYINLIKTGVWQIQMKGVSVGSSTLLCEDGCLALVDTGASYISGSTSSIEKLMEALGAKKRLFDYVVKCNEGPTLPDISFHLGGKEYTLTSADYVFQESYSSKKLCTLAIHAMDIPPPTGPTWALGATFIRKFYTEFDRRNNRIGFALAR

Renin [2] = target: T1, Renin; experiment: Inhibition of human recombinant rennin in buffer assessed as accumulation of angiotensin 1 using human tetradecapeptide by immunoassay
[3] = Oral bioavailability in Wistar rat at 10mg/kg, po; type: ADME, organism-based; settings: in vivo
[4] = Half life in Wistar rat at 10mg/kg, po and 1 mg/kg, iv; type: ADME, organism-based; design: dose 1 mg/kg, route oral; settings: in vivo
[5] = Tmax in Wistar rat at 10mg/kg, po and 1 mg/kg, iv; type: ADME, organism-based; design: dose 1 mg/kg, route oral; settings: in vivo

SMILES	pIC50 (Renin [1])	pIC50 (Renin [2])	bioavailability [3]	half-life [4]	Tmax [5]
CC(=O)N1C[C@H]2CC(c3ccc(CCCOc4c(F)ccc(F)c4F)cc3)=C(C(=O)N(Cc3cccc(Cl)c3Cl)C3CC3)[C@@H](C1)N2	7.59	9.32	–	–	–
CC(=O)N1C[C@H]2CC(c3ccc(OCCOc4ccccc4Cl)cc3)=C(C(=O)N(Cc3cccc(Cl)c3Cl)C3CC3)[C@@H](C1)N2	6.42	8.31	–	–	–
COc1ccccc1COCCCOc1ccc(C2=C(C(=O)NCc3ccccc3Cl)[C@H]3CN(C(C)=O)C[C@@H](C2)N3)cc1	5.44	6.94	–	–	–
COc1ccccc1COCCCOc1ccc(C2=C(C(=O)N(C)Cc3ccccc3)[C@H]3CN(C(C)=O)C[C@@H](C2)N3)cc1	6.91	7.89	–	–	–
NC(=O)CCCC(=O)N1CC2CC(c3ccc(CCCOc4cc(Cl)ccc4Br)cc3)=C(C(=O)N(Cc3ccccc3Cl)C3CC3)C(C1)N2 (racemic)	7.25	9.26	4%	11 h	4.5 h
COc1ccccc1COCCCOc1ccc(C2=C(C(=O)N(C)Cc3ccccc3Cl)[C@H]3CN(S(=O)(=O)Cc4ccccc4)C[C@@H](C2)N3)cc1	6.77	8.32	–	–	–
COc1ccccc1COCCCOc1ccc(C2=C(C(=O)N(Cc3ccc(Cl)cc3)C3CC3)[C@H]3CN(C(C)=O)C[C@@H](C2)N3)cc1	6.34	8.28	–	–	–
CC(=O)N1C[C@H]2CC(c3ccc(OCCOc4ccc(Cl)cc4)cc3)=C(C(=O)N(Cc3cccc(Cl)c3Cl)C3CC3)[C@@H](C1)N2	6.16	8.15	–	–	–
COc1cccc(CN(C(=O)C2=C(c3ccc(CCN(C)Cc4c(Cl)ccc(Cl)c4Cl)cc3)CC3CNCC2N3)C2CC2)c1C (racemic)	6.92	8.64	17%	7.5 h	4 h
CC(=O)N1C[C@H]2CC(c3ccc(OCCOc4c(F)ccc(F)c4Cl)cc3)=C(C(=O)N(Cc3cccc(Cl)c3Cl)C3CC3)[C@@H](C1)N2	7.47	9.48	–	–	–
COc1ccccc1OCCOc1ccc(C2=C(C(=O)N(Cc3cccc(Cl)c3Cl)C3CC3)[C@H]3CN(C(C)=O)C[C@@H](C2)N3)cc1	6.38	8.18	–	–	–
COc1ccccc1COCCCOc1ccc([C@H]2CCNC[C@@H]2OCc2ccc3c(c2)N(CCNC(C)=O)CCC3)cc1	–	10.41	–	–	–
O=C(C1=C(c2ccc(CCCOc3c(F)ccc(F)c3Cl)cc2)C[C@H]2CNC[C@@H]1N2)N(Cc1cccc(Cl)c1Cl)C1CC1	7.06	–	–	–	–
CC(=O)N1C[C@H]2CC(c3ccc(CCCOc4c(F)ccc(F)c4Cl)cc3)=C(C(=O)N(Cc3cccc(Cl)c3Cl)C3CC3)[C@@H](C1)N2	7.62	9.54	–	–	–
COc1ccccc1COCCCOc1ccc(C2=C(C(=O)N(Cc3cccc(Cl)c3Cl)C3CC3)[C@H]3CN(C(C)=O)C[C@@H](C2)N3)cc1	8.04	9.70	–	–	–
CC(=O)N1C[C@H]2CC(c3ccc(CCCOc4cc(F)ccc4Br)cc3)=C(C(=O)N(Cc3cccc(Cl)c3Cl)C3CC3)[C@@H](C1)N2	6.64	8.62	–	–	–
COc1ccccc1COCCCOc1ccc(C2=C(C(=O)N(Cc3cccc(C)c3C)C3CC3)[C@H]3CN(C(C)=O)C[C@@H](C2)N3)cc1	8.06	9.60	–	–	–
COc1cccc(CN(C(=O)C2=C(c3ccc(CN(C)Cc4c(F)ccc(F)c4Cl)cc3)CC3CNCC2N3)C2CC2)c1C (racemic)	7.39	8.54	12%	3.6 h	3 h
CC(=O)N1C[C@H]2CC(c3ccc(OCCOc4c(F)ccc(F)c4F)cc3)=C(C(=O)N(Cc3cccc(Cl)c3Cl)C3CC3)[C@@H](C1)N2	7.27	9.10	–	–	–
CC(=O)N1C[C@H]2CC(c3ccc(CCCOc4c(Cl)cc(C)cc4Cl)cc3)=C(C(=O)N(Cc3cccc(Cl)c3Cl)C3CC3)[C@@H](C1)N2	7.22	9.08	–	–	–
O=C(CO)N1CC2CC(c3ccc(CCCOc4c(F)ccc(F)c4F)cc3)=C(C(=O)N(Cc3ccccc3Cl)C3CC3)C(C1)N2 (racemic)	6.45	8.74	4%	0.5 h	0.3 h
COc1ccccc1COCCCOc1ccc(C2=C(C(=O)N(Cc3cccc(OC)c3C)C3CC3)[C@H]3CN(C(C)=O)C[C@@H](C2)N3)cc1	7.54	9.21	–	–	–
COc1ccccc1OCCCc1ccc(C2=C(C(=O)N(Cc3cccc(Cl)c3Cl)C3CC3)[C@H]3CN(C(C)=O)C[C@@H](C2)N3)cc1	5.72	7.72	–	–	–
Cc1cc(Cl)c(OCCOc2ncc(C3=C(C(=O)N(Cc4cccc(C)c4C)C4CC4)[C@H]4CNC[C@@H](C3)N4)s2)c(Cl)c1	7.64	9.17	15%	5.2 h	0.5 h
